Paper PMC5241874

Molecular target: T1, αγ heterodimer of human NAD-IDH (IDH3) (Homo sapiens, UniProt P50213+P51553)
T1 construct: gene IDH3A; alpha and gamma co-expressed in E. coli BL21(DE3) from pQlinkN; gamma C-terminal TEV-His6, His6 cleaved by TEV; 80 kDa heterodimer (dimer of heterodimers at high concentration)
T1 sequence (P50213 28-366): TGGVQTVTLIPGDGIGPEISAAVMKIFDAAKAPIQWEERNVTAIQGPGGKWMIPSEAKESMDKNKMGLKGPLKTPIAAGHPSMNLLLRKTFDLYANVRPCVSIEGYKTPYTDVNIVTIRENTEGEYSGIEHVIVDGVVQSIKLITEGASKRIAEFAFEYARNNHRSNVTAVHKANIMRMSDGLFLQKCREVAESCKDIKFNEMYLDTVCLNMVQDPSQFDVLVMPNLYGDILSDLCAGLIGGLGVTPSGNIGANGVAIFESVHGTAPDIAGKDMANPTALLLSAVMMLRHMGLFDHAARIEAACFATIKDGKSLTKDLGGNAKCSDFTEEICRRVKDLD
T1 sequence (P51553 40-393): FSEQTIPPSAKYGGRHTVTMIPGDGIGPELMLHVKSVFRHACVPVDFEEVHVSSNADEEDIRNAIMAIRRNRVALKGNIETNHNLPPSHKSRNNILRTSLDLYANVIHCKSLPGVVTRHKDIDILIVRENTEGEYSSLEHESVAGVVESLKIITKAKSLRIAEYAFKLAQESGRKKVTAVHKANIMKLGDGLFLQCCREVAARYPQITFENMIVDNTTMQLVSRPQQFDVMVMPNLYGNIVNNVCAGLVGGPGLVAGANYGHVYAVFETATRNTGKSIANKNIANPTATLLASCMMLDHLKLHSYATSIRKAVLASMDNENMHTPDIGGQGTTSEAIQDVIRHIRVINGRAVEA
Test: crystal structure, […] Å
Assay type: binding
Settings: allosteric citrate subsite in gamma subunit (second site), with Mg2+ and ADP; pH 7.5

Structure (SMILES): O=C(O)C[C@H](C(=O)O)[C@@H](O)C(=O)O [ICT]
- crystal structure, 2.8 Å: In this structure, ICT binds to the CIT-binding subsite with a similar orientation as CIT
